The values that follow come from article PMC7944860 (Antiviral Research, 2021).

Where “and” joins values, the source holds several entries; their conditions need not be identical. Identical values can stand only once. Like-named read-outs stand apart in the source and are kept apart here.

Series [1] has as its system SARS-CoV2. Particulars: 2020, cited from earlier work; for increase of remdesivir inhibitory activity (synergy): ref Bafna et al.
Series [2] concerns HCoV-OC43. In words: HCoV-OC43 focus reduction assay on MRC-5 cells. Particulars: for selectivity index: HCoV-OC43, ratio of CC50 and EC50. It counts as cell-based.
The subject of series [3] is Huh7-hACE2 cells. Put plainly: Cytotoxicity assay. The following applies: read-out: CC50 (μM) (mean ± SD), 20 h, Alamar Blue. On the technique in general: Resazurin is reduced to fluorescent resorufin, in cell work by metabolically active cells.
Series [4] relates to MRC-5 cells. In words: Cell viability assay. Particulars: read-out: CC50 (μM) (mean ± SD), 20 h, MTS.
The subject of series [5] is SARS-CoV2. Put plainly: microbe, parasite or virus in culture. It counts as cell-based. The following applies: for EC50: read-out: EC50 (μM) (mean ± SD).
Series [6] concerns SARS-CoV2. In words: microbe, parasite or virus in culture. It counts as cell-based. The following applies: for EC50: read-out: EC50 (μM) (mean ± SD), virus yield reduction.
A short description of series [7]: Cytotoxicity assay. The following applies: human, Huh7-hACE2 cells.
A short description of series [8]: Cell viability assay. The following applies: human, MRC-5 cells.
In series [9] the test system is HCoV-OC43. Put plainly: HCoV-OC43 virus yield reduction assay on MRC-5 cells. It counts as cell-based. Particulars: for EC50: Betacoronavirus 1, OC43, MRC5, 24 h, read-out: EC50 (μM) (mean ± SD), virus yield reduction; for Virus titer reduction Log10 (mean ± SD) at highest tested dose: FFU/mL vs infected untreated control.
Where [10] appears, read: read-out: EC50 (μM) (mean ± SD), HCoV-OC43, MRC-5 cells, 20 h, focus reduction.
Setting [11] is: Betacoronavirus 1, OC43, MRC5, 20 h, read-out: EC50 (μM) (mean ± SD), HCoV-OC43, MRC-5 cells, 20 h, focus reduction.
Where [12] appears, read: Severe acute respiratory syndrome coronavirus 2, 20 h.
Where [13] appears, read: HCoV-OC43, MRC-5 cells, 20 h, focus reduction.

In the case of `C=C[C@@H]1C[C@]1(NC(=O)[C@@H]1C[C@@H]2CN1C(=O)[C@H](C(C)(C)C)NC(=O)O[C@@H]1C[C@H]1CCCCCc1nc3ccc(OC)cc3nc1O2)C(=O)NS(=O)(=O)C1CC1.O` [Grazoprevir], the “increase of remdesivir inhibitory activity (synergy)” value in series [1] is reported as no more than 10 fold. The EC50 is 11 ± 1.1 µM in [2] (setting [10]); ~16 µM and 16 µM in series [5]; 3.3 ± 0.9 µM in series [6]. The CC50 in series [3] came out at 118 ± 6 µM; in [4] it was 70 ± 12.8 µM. Further, in [6], the “Virus titer reduction Log10 (mean ± SD) at highest tested dose” value (shortened to “Virus titer reduction Log10 (mean ± SD)”) was 3.9 and 3.9 ± 0.07 (100 μM) Log10.
Regarding `CC1(C)CCC(CN2CCN(c3ccc(C(=O)NS(=O)(=O)c4ccc(NCC5CCOCC5)c([N+](=O)[O-])c4)c(Oc4cnc5[nH]ccc5c4)c3)CC2)=C(c2ccc(Cl)cc2)C1` [Venetoclax], the EC50 is 3.5 ± 0.5 µM in [2] (setting [11]) and roughly 6.2 µM in series [5] (setting [12]). Also, the CC50 at 20 h came out at 22 ± 6.2 µM in series [7] and 10.6 ± 1.5 µM in series [8].
On to `COc1ccc2c(O[C@@H]3C[C@H]4C(=O)N[C@]5(C(=O)NS(=O)(=O)C6CC6)C[C@H]5/C=C\CCCCN(C)C(=O)[C@@H]4C3)cc(-c3nc(C(C)C)cs3)nc2c1C` [Simeprevir], for which, in [1], the “increase of remdesivir inhibitory activity (synergy)” value is no more than 10 fold. The results for the EC50 in series [2] (setting [11]) and in series [5] (setting [12]) were roughly 2.1 µM and roughly 9.3 µM, respectively. Moreover, the values for the CC50 at 20 h in [7] and in series [8] were 47.5 ± 41 µM and 11.1 ± 2.3 µM, respectively.
On to `CCN1CCN(C(=O)N[C@@H](C(=O)N[C@@H]2C(=O)N3C(C(=O)O)=C(CSc4nnnn4C)CS[C@H]23)c2ccc(O)cc2)C(=O)C1=O` [Cefoperazone], for which the “EC50 (μM) (mean ± SD)” value in series [2] (setting [13]) is on record as “no antiviral activity”. In addition, the CC50 at 20 h in [8] is greater than 1000 µM.
Regarding `CCc1c2c(nc3ccc(OC(=O)N4CCC(N5CCCCC5)CC4)cc13)-c1cc3c(c(=O)n1C2)COC(=O)[C@]3(O)CC` [Irinotecan], the “EC50 (μM) (mean ± SD)” value in series [2] (setting [13]) is on record as “no antiviral activity”. Besides, the CC50 at 20 h in series [7] is greater than 100 µM; in [8], 63.4 ± 11.4 µM. Besides, the concentration for a half-maximal effect (EC50) in series [5] (setting [12]) stood at 85.2 ± 17 µM.
For `COC(=O)N[C@H](C(=O)N1CCC[C@H]1c1nc(-c2ccc3c(c2)O[C@@H](c2ccccc2)n2c-3cc3cc(-c4c[nH]c([C@@H]5CCCN5C(=O)[C@@H](NC(=O)OC)C(C)C)n4)ccc32)c[nH]1)C(C)C` [Elbasvir], the “increase of remdesivir's apparent potency in preventing SARS-CoV2 replication” value in series [1] (in combination with grazoprevir (Zepatier), ref Nguyenla et al.) is reported as 25 fold. Also, the EC50 is roughly 1.5 µM in series [2] (setting [11]), 1.3 ± 0.4 µM in [9], roughly 23 µM in [5] (setting [12]) and 14.4 ± 7.9 µM in [6] (setting [12]). The selectivity index entry in series [2] is “higher than 600”. The “Virus titer reduction Log10 (mean ± SD)” value in [9] (HCoV-OC43, 100 μM) is 1.4 ± 0.2 (100 μM) Log10; in series [6] it was 0.6 and 0.6 ± 0.2 (100 μM) Log10. The CC50 at 20 h in series [7] and in [8] was greater than 1000 µM each time.
Consider `CCc1cc2c(cc1N1CCC(N3CCOCC3)CC1)C(C)(C)c1[nH]c3cc(C#N)ccc3c1C2=O` [Alectinib], for which the EC50 was 0.6 ± 0.2 µM in series [2] (setting [11]) and 1 ± 0.1 µM in [9]. Moreover, in series [9] (HCoV-OC43, 33 μM), the “Virus titer reduction Log10 (mean ± SD)” value is listed as 2.9 ± 0.1 (33 μM) Log10. In series [8], the CC50 at 20 h is greater than 1000 µM. Also, the “EC50 (μM) (mean ± SD)” value in series [5] is “no activity”.
Consider `COc1cc([C@@H]2c3cc4c(cc3[C@@H](O[C@@H]3O[C@@H]5CO[C@@H](c6cccs6)O[C@H]5[C@H](O)[C@H]3O)[C@H]3COC(=O)[C@H]23)OCO4)cc(OC)c1O` [Teniposide], for which the “EC50 (μM) (mean ± SD)” value in [2] (setting [13]) is listed as “no antiviral activity”. Further, the CC50 at 20 h in [7] is greater than 100 µM; in series [8], 701 ± 281 µM. Moreover, the EC50 in series [5] (setting [12]) turned out to be 97 ± 0.7 µM.
The corresponding values for `C[C@@H]1C/C=C/C=C/C=C/C=C/[C@H](O[C@@H]2O[C@H](C)[C@@H](O)[C@H](N)[C@@H]2O)C[C@@H]2O[C@](O)(C[C@@H](O)C[C@H]3O[C@@H]3/C=C/C(=O)O1)C[C@H](O)[C@H]2C(=O)O` [Natamycin] are “no antiviral activity”, 35.9 ± 13.4 µM, 47.3 ± 4.4 µM and 24.3 ± 4.4 µM.
For `O=C1[C@@H]2[C@H]3CC[C@H](C3)[C@@H]2C(=O)N1C[C@@H]1CCCC[C@H]1CN1CCN(c2nsc3ccccc23)CC1` [Lurasidone], the EC50 in [2] (setting [11]) was 1.1 ± 0.4 µM; in [9], 8.3 ± 2 µM; in series [5] (setting [12]), 18 ± 4.6 µM; in series [6] (setting [12]) it was 6.4 ± 3.9 µM. Moreover, the selectivity index result in series [2] is “higher than 600”. The “Virus titer reduction Log10 (mean ± SD)” value is 6.3 ± 1.5 (100 μM) Log10 in series [9] (HCoV-OC43, 100 μM); 1.3 and 1.3 ± 0.3 (100 μM) Log10 in series [6]. Besides, the CC50 at 20 h in [7] and in series [8] was greater than 1000 µM each time.
As to `Cc1ccc(C(=O)Nc2ccc(CN3CCN(C)CC3)c(C(F)(F)F)c2)cc1C#Cc1cnc2cccnn12` [Ponatinib], the EC50 in [2] (setting [11]) turned out to be 0.1 ± 0.05 µM; in series [5] (setting [12]), 1.1 ± 0.2 µM. The CC50 at 20 h turned out to be 8.7 ± 3.8 µM in series [7] and 3.1 ± 0.5 µM in series [8].
For the molecule `Cn1nnc(-c2ccc(-c3ccc(N4C[C@H](COP(=O)(O)O)OC4=O)cc3F)cn2)n1` [Tedizolid, Tedizolid phosphate], the EC50 in [2] (setting [10]) came out at 94 ± 25 µM. In [4], the CC50 is greater than 1000 µM.
For `CC1(C)[C@@H](OC(=O)CCC(=O)O)CC[C@]2(C)[C@H]3C(=O)C=C4[C@@H]5C[C@@](C)(C(=O)O)CC[C@]5(C)CC[C@@]4(C)[C@]3(C)CC[C@@H]12` [Carbenoxolone], the EC50 in series [2] (setting [11]) worked out at 45.7 ± 8 µM; in series [5] (setting [12]), 66 ± 11 µM. The CC50 at 20 h in series [7] was greater than 100 µM; in series [8], 251 ± 17 µM.
For `Cc1ccc(C(=O)Nc2ccc(S(=O)(=O)O)c3cc(S(=O)(=O)O)cc(S(=O)(=O)O)c23)cc1NC(=O)c1cccc(NC(=O)Nc2cccc(C(=O)Nc3cc(C(=O)Nc4ccc(S(=O)(=O)O)c5cc(S(=O)(=O)O)cc(S(=O)(=O)O)c45)ccc3C)c2)c1` [Suramin], in that order: 19.3 ± 4.3 µM, 64 ± 6.6 µM, greater than 100 µM and greater than 1000 µM.

In general, EC50 refers to the concentration that produces a half-maximal response. In general, CC50 refers to the concentration at which the toxic effect on the cells reaches its halfway point.
